Tests used:
P2Y purinoceptor 2 [1] = target: T1, P2Y purinoceptor 2 (Homo sapiens, UniProt P41231); assay: Displacement of 2-((5-(7-chloro-2-((3-((2-(5-(3-(5,5-difluoro-7,9-dimethyl-5H-4lambda4,5lambda4-dipyrrolo[1,2-c:2',1'-f][1,3,2]diazaborinin-3-yl)propanamido)pentanamido)ethyl)amino)-3-oxopropyl)amino)-4H-benzo[5,6]cyclohepta[1,2-d]thiazol-4-yl)-2-oxo-4-thioxo-3,4-dihydropyrimidin-1(2H)-yl)methyl)-N-(1H-tetrazol-5-yl)thiazole-4-carboxamide from NLuc fused P2Y2R (unknown origin) extracted from 1321N1 cell membrane incubated for 1 hr by NanoBRET assay
P2Y purinoceptor 2 [2] = target: T1, P2Y purinoceptor 2
Description: Binding affinity to NanoLuc-fused P2Y2R (unknown origin) extracted from 1321N1 cell membrane incubated for 1 hr by NanoBRET assay

P2Y purinoceptor 2 [3] = target: T1, P2Y purinoceptor 2; remark: listed apart in the source
Description: Displacement of (E)-N6-(5-(bis(4-chlorophenyl)methyl)thiazol-2-yl)-N2-(6-(2-(4-(2-(5,5-difluoro-7-(thiophen-2-yl)-5H-4lambda4,5lambda4-dipyrrolo[1,2-c:2',1'-f][1,3,2]diazaborinin-3-yl)vinyl)phenoxy)acetamido)hexanoyl)-L-lysine from NLuc fused P2Y2R (unknown origin) extracted from 1321N1 cell membrane incubated for 1 hr by NanoBRET assay

T1 sequence (P41231 whole entry, the tested form may be a part): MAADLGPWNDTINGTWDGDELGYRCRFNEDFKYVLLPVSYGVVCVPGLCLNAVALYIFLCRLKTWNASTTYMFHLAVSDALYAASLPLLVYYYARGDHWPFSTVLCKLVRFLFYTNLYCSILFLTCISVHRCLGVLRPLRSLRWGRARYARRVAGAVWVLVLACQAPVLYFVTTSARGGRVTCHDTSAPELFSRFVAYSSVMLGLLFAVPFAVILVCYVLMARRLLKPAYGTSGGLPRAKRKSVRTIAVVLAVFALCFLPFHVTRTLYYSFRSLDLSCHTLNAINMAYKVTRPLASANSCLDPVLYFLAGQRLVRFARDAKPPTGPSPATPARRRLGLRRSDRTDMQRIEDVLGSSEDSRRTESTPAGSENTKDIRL

| Ki (P2Y purinoceptor 2 [1]) | Kd (P2Y purinoceptor 2 [2]) | Ki (P2Y purinoceptor 2 [3]) | SMILES |
| --- | --- | --- | --- |
| 3.31 µM | 0.955 µM | – | O=C(COc1ccc(/C=C/C2=[N+]3C(=Cc4ccc(-c5cccs5)n4[B-]3(F)F)C=C2)cc1)NCCCCCC(=O)N[C@@H](CCCNc1ncc(C(c2ccc(Cl)cc2)c2ccc(Cl)cc2)s1)C(=O)O |
| – | 4.17 µM | – | CN(C)c1ccc2c(-c3ccc(C(=O)N[C@@H](CCCNc4ncc(C(c5ccc(Cl)cc5)c5ccc(Cl)cc5)s4)C(=O)O)cc3C(=O)[O-])c3ccc(=[N+](C)C)cc-3oc2c1 |
| – | 2.29 µM | – | O=C(COc1ccc(/C=C/C2=[N+]3C(=Cc4ccc(-c5cccs5)n4[B-]3(F)F)C=C2)cc1)NCCCCCC(=O)N[C@@H](CCNc1ncc(C(c2ccc(Cl)cc2)c2ccc(Cl)cc2)s1)C(=O)O |
| ~1000 µM | – | – | CCOCCNc1ncc(C(c2ccc(Cl)cc2)c2ccc(Cl)cc2)s1 |
| – | – | 9.12 µM | CCOCCNc1nc2c(s1)C=Cc1cc(Cl)ccc1[C@@H]2c1cn(C)c(=O)[nH]c1=S (racemic) |

Source: ChEMBL document CHEMBL5584275, “Design, Synthesis, and Evaluation of a New Chemotype Fluorescent Ligand for the P2Y2 Receptor” (ACS Med Chem Lett, 2024)
